Assay results reported in the supplement of paper PMC10307832.

What was measured:
Assay in all cases: relative viability (nuclei count vs DMSO), 5 days (fraction); higher = more cells survive
[1] = compound: CC(C)C[C@H](NC(=O)[C@H](Cc1ccccc1)NC(=O)c1cnccn1)B(O)O [Bortezomib] + CCNC(=O)c1noc(-c2cc(C(C)C)c(O)cc2O)c1-c1ccc(CN2CCOCC2)cc1 [Luminespib] (partner 0.01 µM)
Outline: (§1)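 Lung cancer cell lines in 1536-well plates were dosed by pin tool the day after seeding, either with one drug alone or with a fixed anchor-drug dose plus five library-drug doses (not always all listed) in √10 steps. After 5 days, cells were fixed and their nuclei stained in one step (final 0.05% Triton X-100, 1% formaldehyde, 1 ug/ml Hoechst), then counted on 4× images. Relative viability is the nuclei count in treated wells divided by that in vehicle wells. Values are medians of duplicate plates.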

[2] = compound: CC(C)C[C@H](NC(=O)[C@H](Cc1ccccc1)NC(=O)c1cnccn1)B(O)O [Bortezomib] + NC(=O)Nc1cc(-c2cccc(F)c2)sc1C(=O)N[C@H]1CCCNC1 [AZD7762] (partner 0.2 µM)
Outline: as §1

[3] = compound: CC1=CC(=NN1)NC2=CC(=NC(=N2)/C=C/C3=CC=CC=C3)N4CCN(CC4)C + NC(=O)Nc1cc(-c2cccc(F)c2)sc1C(=O)N[C@H]1CCCNC1 [AZD7762] (partner 0.2 µM)
Outline: as §1

[4] = compound: COC1=CC(c2cc3ccccc3[nH]2)=N/C1=C\c1[nH]c(C)cc1C [Obatoclax] + Nc1nc2[nH]cc(CCc3ccc(C(=O)N[C@@H](CCC(=O)O)C(=O)O)cc3)c2c(=O)[nH]1 [Pemetrexed] (partner 0.2 µM)
Outline: as §1

| Cell Line | relative viability ([1]; first compound 0.0002 µM) | relative viability ([1]; first compound 0.000632 µM) | relative viability ([1]; first compound 0.002 µM) | relative viability ([1]; first compound 0.006325 µM) | relative viability ([1]; first compound 0.02 µM) | relative viability ([2]; first compound 0.0002 µM) | relative viability ([2]; first compound 0.000632 µM) | relative viability ([2]; first compound 0.002 µM) | relative viability ([2]; first compound 0.006325 µM) | relative viability ([2]; first compound 0.02 µM) | relative viability ([3]; first compound 0.08 µM) | relative viability ([3]; first compound 0.253 µM) | relative viability ([3]; first compound 0.8 µM) | relative viability ([3]; first compound 2.53 µM) | relative viability ([3]; first compound 8 µM) | relative viability ([4]; first compound 0.01 µM) | relative viability ([4]; first compound 0.03162 µM) | relative viability ([4]; first compound 0.1 µM) | relative viability ([4]; first compound 0.3162 µM) | relative viability ([4]; first compound 1 µM) |
| --- | --- | --- | --- | --- | --- | --- | --- | --- | --- | --- | --- | --- | --- | --- | --- | --- | --- | --- | --- | --- |
| NCI-H596 | 0.942 | 0.73 | 0.609 | 0.244 | 0.2 | 0.983 | 1.22 | 1.15 | 0.634 | 0.205 | 1.07 | 1.14 | 1.04 | 0.583 | 0.279 | 0.516 | 0.504 | 0.459 | 0.467 | 0.429 |
| NCI-H647 | 0.198 | 0.294 | 0.136 | 0.0557 | 0.0467 | 0.405 | 0.447 | 0.419 | 0.0227 | 0.0188 | 0.328 | 0.598 | 0.499 | 0.103 | 0.0452 | 0.207 | 0.164 | 0.19 | 0.144 | 0.116 |
| NCI-H838 | 0.428 | 0.302 | 0.264 | 0.124 | 0.103 | 0.878 | 0.925 | 0.9 | 0.682 | 0.622 | 0.963 | 1.09 | 0.99 | 0.782 | 0.623 | 0.237 | 0.247 | 0.233 | 0.223 | 0.198 |
| NCI-H1355 | 0.668 | 0.657 | 0.645 | 0.233 | 0.167 | 0.794 | 0.721 | 0.922 | 0.293 | 0.133 | 0.779 | 0.802 | 0.778 | 0.581 | 0.15 | 1.05 | 0.994 | 1.06 | 1 | 0.966 |
| NCI-H1395 | 0.864 | 0.761 | 0.445 | 0.334 | 0.263 | 0.381 | 0.393 | 0.385 | 0.323 | 0.304 | 0.399 | 0.389 | 0.346 | 0.315 | 0.332 | 0.84 | 0.781 | 0.827 | 0.711 | 0.657 |
| NCI-H1437 | 1.11 | 1.07 | 1.14 | 0.165 | 0.155 | 1.09 | 1.11 | 1.04 | 0.496 | 0.194 | 1.17 | 1.17 | 1.21 | 1.05 | 0.416 | 0.305 | 0.344 | 0.324 | 0.307 | 0.319 |
| NCI-H1651 | 0.868 | 0.906 | 1.07 | 0.154 | 0.114 | 0.451 | 0.474 | 0.485 | 0.507 | 0.131 | 0.437 | 0.483 | 0.463 | 0.335 | 0.0886 | 0.591 | 0.439 | 0.528 | 0.373 | 0.603 |
| NCI-H1666 | 0.951 | 1.02 | 0.98 | 0.319 | 0.322 | 0.849 | 0.935 | 0.817 | 0.592 | 0.333 | 0.892 | 0.786 | 0.811 | 0.701 | 0.501 | 0.835 | 0.775 | 0.823 | 0.725 | 0.633 |
